The experiment concerns the target SARS2 protease (Severe acute respiratory syndrome coronavirus 2, UniProt P0DTD1). Nature of the experiment: SARS-CoV-2 protease inhibition assay (SARS2 FRET protease assay). The class given is biochemical. As to the method:
Viral protease assays: The antiviral activities of inhibitors were determined by FRET (Fluorescence Resonance Energy Transfer) assay. Purified viral protease was incubated with the protease substrate peptide (Edans-DFHLQ/GP-Dabcyl) and inhibitor, and IC50 values were subsequently determined by the fluorescence signals.
The SARS2 FRET protease assay was performed in 20 mM HEPES-Na pH 7, 120 mM NaCl, 0.4 mM EDTA, 0.01% Triton, 5% glycerol, and 4 mM DTT. A self-quenching peptide substrate 5-FAM-TSA VLQ SGF RKK (5TAMRA)-NH2 was custom synthesized by Anaspec. Compounds were diluted in 3-fold serial dilutions to final concentrations of 20 μM to 1.0 nM. SARS2 protease was added to a final concentration of 25 nM, depending on the enzyme activity level, and the peptide substrate was added to a final concentration of 1.3 μM. The assay was incubated 30 minutes at 30° C. and read in a Perkin Elmer Envision with excitation at 473 nm and emission measurement at 519 nm.

[1] abbreviates: Table E, SARS-CoV-2 protease inhibition, read-out: IC50.

Like-named read-outs stand apart in the source and are kept apart here.

The term IC50 denotes the concentration that gives 50% inhibition. `CCOP(=O)(OCC)C(O)[C@H](CCC(=O)N(C)CCc1ccncc1)NC(=O)[C@H](CC1CCCCC1)NC(=O)OCc1cccc(Cl)c1` (stereo partly drawn) [Compound A51, 3-Chlorobenzyl ((2S)-3-cyclohexyl-1-(((2S)-1-(diethoxyphosphoryl)-1-hydroxy-5-(methyl (2-(pyridin-4-yl)ethyl)amino)-5-oxopentan-2-yl)amino)-1-oxopropan-2-yl) carbamate]: the concentration for half-maximal inhibition (IC50) under setting [1] is over 200 µM. As to `CC(C)C[C@@H]1NC(=O)OC(Cc2ccccc2)CCC=CCC(C(=O)N(C)C)C[C@@H](C(=O)C(=O)NC(C)C)NC1=O` (stereo partly drawn) [Compound B42, (4S,7S)-15-benzyl-4-isobutyl-7-(2-(isopropylamino)-2-oxoacetyl)-N,N-dimethyl-2,5-dioxo-1-oxa-3,6-diazacyclopentadec-11-ene-9-carboxamide], the IC50 is over 200 µM. Regarding `CON(C)C(=O)[C@H](CCC(=O)N(C)CCc1ccc(Cl)cc1)NC(=O)[C@H](CC1CCCCC1)NC(=O)OCc1cccc(Cl)c1` (stereo in doubt) [Compound A41, 3-Chlorobenzyl ((S)-1-(((S)-5-((4-chlorophenethyl)(methyl)amino)-1-(methoxy(methyl)amino)-1,5-dioxopentan-2-yl)amino)-3-cyclohexyl-1-oxopropan-2-yl)carbamate], the half-inhibitory concentration (IC50) under setting [1] amounted to 30 µM. As for `CCCCCCCCC(=O)N[C@@H](CC(C)C)C(=O)NC1CCC(=O)N(C)C1(O)C(=O)NC(C)C` (stereo in doubt) [Compound A4, (3S)-2-hydroxy-N-isopropyl-1-methyl-3-((S)-4-methyl-2-nonanamidopentanamido)-6-oxopiperidine-2-carboxamide], under setting [1], the IC50 was over 200 µM.

Take `CCO[N+]([O-])(OCC)[C@H](O)[C@H]1CC2(CCCCCCC(Cc3ccccc3)C(=O)N[C@@H](CC(C)C)C(=O)N1)CCNC2=O` (stereo partly shown) [Compound B41]: the IC50 under setting [1] was over 200 µM.

On to `CN(CCc1ccccc1)C(=O)CC[C@@H](CO)NC(=O)[C@H](CC1CCCCC1)NC(=O)OCc1cccc(Cl)c1` [Compound A26, 3-chlorobenzyl ((S)-3-cyclohexyl-1-(((S)-1-hydroxy-5-(methyl(phenethyl)amino)-5-oxopentan-2-yl)amino)-1-oxopropan-2-yl)carbamate], for which, under setting [1], the IC50 was determined as 14.7 µM. Consider `CCOP(=O)(OCC)C(O)[C@H](CCC(=O)N(C)CCc1ccccc1Cl)NC(=O)[C@H](CC1CCCCC1)NC(=O)OCc1cccc(Cl)c1` (stereo partly drawn) [Compound A47, 3-Chlorobenzyl ((2S)-1-(((2S)-5-((2-chlorophenethyl)(methyl)amino)-1-(diethoxyphosphoryl)-1-hydroxy-5-oxopentan-2-yl)amino)-3-cyclohexyl-1-oxopropan-2-yl)carbamate], for which, under setting [1], the IC50 was over 200 µM. Still for that read-out and setting: next, `CCS(=O)(=O)NCCN(C)C(=O)CC[C@H](NC(=O)[C@H](CC1CCCCC1)NC(=O)OCc1cccc(Cl)c1)C(=O)N(C)OC` (stereo in doubt) [Compound A29, 3-Chlorobenzyl ((S)-3-cyclohexyl-1-(((S)-5-((2-(ethylsulfonamido)ethyl)(methyl)amino)-1-(methoxy(methyl)amino)-1,5-dioxopentan-2-yl)amino)-1-oxopropan-2-yl)carbamate]: over 200 µM; `CCCCCCCCC(=O)N[C@@H](CC(C)C)C1=NC(CCC(=O)NC)CO1` (stereo partly shown) [Compound A112, N-((1 S)-3-methyl-1-(4-(3-(methylamino)-3-oxopropyl)-4,5-dihydrooxazol-2-yl)butyl)nonanamide]: over 200 µM.

Turning to `CCCCCCCC1CC/C=C\CC(C(=O)NC)C[C@@H](CO)NC(=O)[C@H](CC(C)C)NC1=O` (stereo partly drawn) [Compound B65, (2S,5S,Z)-13-heptyl-5-(hydroxymethyl)-2-isobutyl-N-methyl-3,14-dioxo-1,4-diazacyclotetradec-9-ene-7-carboxamide], the IC50 under setting [1] was over 200 µM.

With `CCOP(=O)(OCC)C(O)[C@H](CC(C)C(=O)N(C)CCc1ccccc1)NC(=O)[C@H](CC1CCCCC1)NC(=O)OCc1cccc(Cl)c1` (stereo partly drawn) [Compound A104, 3-Chlorobenzyl ((2S)-3-cyclohexyl-1-(((2S)-1-(diethoxyphosphoryl)-1-hydroxy-4-methyl-5-(methyl (phenethyl)amino)-5-oxopentan-2-yl)amino)-1-oxopropan-2-yl)carbamate], under setting [1], the IC50 is over 200 µM.

Turning to `CCCCCCCC1CCCC/C=C/CC(C(=O)N(C)C)CC(C=O)NC(=O)[C@H](CC(C)C)NC1=O` (stereo in doubt) [Compound B7, (2S,5S,E)-5-formyl-15-heptyl-2-isobutyl-N,N-dimethyl-3,16-dioxo-1,4-diazacyclohexadec-9-ene-7-carboxamide], the IC50 under setting [1] was over 200 µM. As to `CCOP(=O)(OCC)C(O)[C@H](CCC(=O)N1CCCC(c2ccccc2)C1)NC(=O)[C@H](CC1CCCCC1)NC(=O)OCc1cccc(Cl)c1` (stereo partly drawn) [Compound A106, 3-Chlorobenzyl ((2S)-3-cyclohexyl-1-(((2S)-1-(diethoxyphosphoryl)-1-hydroxy-5-oxo-5-(3-phenylpiperidin-1-yl)pentan-2-yl)amino)-1-oxopropan-2-yl)carbamate], the IC50 under setting [1] was over 200 µM. As for `CC(C)C[C@@H]1NC(=O)C(Cc2ccccc2)CCCC/C=C/CC2CC(NC1=O)C(O)N(C)C2=O` (stereo partly drawn) [Compound B21, (4S,E)-7-benzyl-18-hydroxy-4-isobutyl-17-methyl-2,5,17-triazabicyclo[13.3.1]nonadec-12-ene-3,6,16-trione], the IC50 under setting [1] was determined as 89.8 µM.

Regarding `CON(C)C(=O)[C@H](CC(C)C(=O)N(C)CCc1ccccc1)NC(=O)[C@H](CC1CCCCC1)NC(=O)OCc1cccc(Cl)c1` (stereo in doubt) [Compound A37, 3-Chlorobenzyl ((2S)-3-cyclohexyl-1-(((2S)-1-(methoxy (methyl)amino)-4-methyl-5-(methyl (phenethyl)amino)-1,5-dioxopentan-2-yl)amino)-1-oxopropan-2-yl) carbamate], under setting [1], the 50% inhibitory concentration (IC50) was over 200 µM. Turning to `CCCCCCCC1CCCCCC(C(=O)N(C)C)CC(C(=O)N(C)OC)NC(=O)[C@H](CC(C)C)NC1=O` (stereo in doubt) [Compound B19, (2S,5S)-13-heptyl-2-isobutyl-N^5-methoxy-N^5,N^7,N^7-trimethyl-3,14-dioxo-1,4-diazacyclotetradecane-5,7-dicarboxamide], the IC50 under setting [1] is over 200 µM.

Turning to `CCOP(=O)(OCC)C(O)[C@H](CCC(=O)N(C)CCc1cccc(Cl)c1)NC(=O)[C@H](CC1CCCCC1)NC(=O)OCc1cccc(Cl)c1` (stereo partly drawn) [Compound A34, 3-Chlorobenzyl ((2S)-1-(((2S)-5-((3-chlorophenethyl)(methyl)amino)-1-(diethoxyphosphoryl)-1-hydroxy-5-oxopentan-2-yl)amino)-3-cyclohexyl-1-oxopropan-2-yl)carbamate], the IC50 under setting [1] is over 200 µM. With `CCCCCCC1CCC/C=C\CC(C(=O)N(C)C)CC(C(=O)N(C)OC)NC(=O)C(CC(C)C)NC(=O)C1` (stereo in doubt) [Compound B14, (2S,5S,Z)-14-hexyl-2-isobutyl-N5-methoxy-N^5,N^7,N^7-trimethyl-3,16-dioxo-1,4-diazacyclohexadec-9-ene-5,7-dicarboxamide], the IC50 under setting [1] is over 200 µM. Regarding `CCNC(=O)OCCN(C)C(=O)CC[C@H](NC(=O)[C@H](CC1CCCCC1)NC(=O)OCc1cccc(Cl)c1)C(O)P(=O)(OCC)OCC` (stereo partly drawn) [Compound A28, 3-Chlorobenzyl ((12S,15S)-16-cyclohexyl-12-((diethoxyphosphoryl)(hydroxy)methyl)-8-methyl-4,9,14-trioxo-5-oxa-3,8,13-triazahexadecan-15-yl)carbamate], the IC50 under setting [1] was over 200 µM. `CCCCCCCC1CC/C=C\CC(C(=O)N(C)C)CC(C(=O)N(C)OC)NC(=O)[C@H](CC(C)C)NC1=O` (stereo in doubt) [Compound B11, (2S,5S,Z)-13-heptyl-2-isobutyl-N^5-methoxy-N^5,N^7,N^7-trimethyl-3,14-dioxo-1,4-diazacyclotetradec-9-ene-5,7-dicarboxamide]: under setting [1], the IC50 was over 200 µM. Still for that read-out and setting: next, `CCCCCCCC1CC/C=C/CC(C(=O)NC)C[C@@H](C(=O)N(C)OC)NC(=O)[C@H](CC(C)C)NC(=O)O1` (stereo partly drawn) [Compound B64, (4S,7S,E)-15-heptyl-4-isobutyl-N^7-methoxy-N^7,N^9-dimethyl-2,5-dioxo-1-oxa-3,6-diazacyclopentadec-11-ene-7,9-dicarboxamide]: over 200 µM. On the same count and under the same terms, next, `CCN(CCc1ccccc1)C(=O)CC[C@H](NC(=O)[C@H](CC1CCCCC1)NC(=O)OCc1cccc(Cl)c1)C(=O)N(C)OC` (stereo in doubt) [Compound A42, 3-Chlorobenzyl ((S)-3-cyclohexyl-1-(((S)-5-(ethyl(phenethyl)amino)-1-(methoxy(methyl)amino)-1,5-dioxopentan-2-yl)amino)-1-oxopropan-2-yl)carbamate]: over 200 µM.

For the compound `CON(C)C(=O)[C@H](CCC(=O)N(C)CCc1cccc(Cl)c1)NC(=O)[C@H](CC1CCCCC1)NC(=O)OCc1cccc(Cl)c1` [Compound A23], the IC50 under setting [1] was over 200 µM. Take `CCCC1CCCC/C=C/CC2CC(NC(=O)[C@H](CC(C)C)NC1=O)C(O)(C(=O)NC(C)C)N(C)C2=O` (stereo partly drawn) [Compound B26, (4S,E)-18-hydroxy-4-isobutyl-N-isopropyl-17-methyl-3,6,16-trioxo-7-propyl-2,5,17-triazabicyclo[13.3.1]nonadec-12-ene-18-carboxamide]: the IC50 under setting [1] was over 200 µM. The same measure, in the same setting: next, `CCOC(=O)NCCN(C)C(=O)CC[C@H](NC(=O)[C@H](CC1CCCCC1)NC(=O)OCc1cccc(Cl)c1)C(=O)N(C)OC` (stereo in doubt) [Compound A32, 3-Chlorobenzyl ((12S,15S)-16-cyclohexyl-12-(methoxy(methyl)carbamoyl)-8-methyl-4,9,14-trioxo-3-oxa-5,8,13-triazahexadecan-15-yl)carbamate]: over 200 µM.
